# Measured values reported in the supplement of paper PMC11061612.
# What was measured:
# [1] = test system: SW1710 (Bladder Carcinoma); experiment: Bliss excess, mean over the matrix (fraction); higher = more synergy
# In short: (§1)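 Cell lines grown in DMEM/F12 or RPMI with 10% FBS were plated in 1536-well plates and held 24 hours at 37°C, 5% CO2 before 72 hours of exposure to two-drug dose matrices, with DMSO typically at 0.2%. CellTiter-Glo 2.0 luminescence gave viability, which was converted to inhibition. Vehicle wells were set to 0 and blank wells to 1. Combination Emax is the second-highest inhibition in the matrix, and Bliss excess is the observed combination effect minus the expected EA + EB − EA·EB, where EA and EB are the single-agent effects.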
# [2] = test system: LNZTA3WT4 (Low Grade Glioma); experiment: as above
# In short: as §1
# [3] = test system: WSU-NHL (B-Cell Non-Hodgkin's Lymphoma); experiment: as above
# In short: as §1
# [4] = test system: TGBC1TKB (Biliary Tract Carcinoma); experiment: as above
# In short: as §1
# MPP-89 (Mesothelioma) [5] = experiment: as above
# In short: as §1
# [6] = test system: HH (T-Cell Non-Hodgkin's Lymphoma); experiment: as above
# In short: as §1
# [7] = test system: HuCCT1 (Biliary Tract Carcinoma); experiment: as above
# In short: as §1
# CAL-72 (Osteosarcoma) [8] = experiment: as above
# In short: as §1
# [9] = test system: BE-13 (T-Lymphoblastic Leukemia); experiment: as above
# In short: as §1
# [10] = test system: SNU-449 (Hepatocellular Carcinoma); experiment: as above
# In short: as §1
# [11] = test system: ESS-1 (Other Solid Carcinomas); experiment: as above
# In short: as §1
# [12] = test system: KYAE-1 (Esophageal Adenocarcinoma); experiment: as above
# In short: as §1
# LOXIMVI (Melanoma) [13] = experiment: as above
# In short: as §1
# GAMG (Glioblastoma) [14] = experiment: as above
# In short: as §1
# A673 (Ewing's Sarcoma) [15] = experiment: as above
# In short: as §1
# EW-11 (Ewing's Sarcoma) [16] = experiment: as above
# In short: as §1
# [17] = test system: YAPC (Pancreatic Carcinoma); experiment: as above
# In short: as §1
# KS-1 (Glioblastoma) [18] = experiment: as above
# In short: as §1
# [19] = test system: LS-123 (Colorectal Carcinoma); experiment: as above
# In short: as §1
# [20] = test system: NCI-H524 (Small Cell Lung Carcinoma); experiment: as above
# In short: as §1
# [21] = test system: SAS (Oral Cavity Carcinoma); experiment: as above
# In short: as §1
# [22] = test system: OVCAR-5 (Ovarian Carcinoma); experiment: as above
# In short: as §1
# [23] = test system: SNU-16 (Gastric Carcinoma); experiment: as above
# In short: as §1
# [24] = test system: SW1710 (Bladder Carcinoma); experiment: combination Emax (second highest fraction inhibited in the dose matrix, 72 h); higher = more inhibition; extreme values may be limits of the assay
# In short: as §1
# [25] = test system: LNZTA3WT4 (Low Grade Glioma); experiment: as above
# In short: as §1
# [26] = test system: WSU-NHL (B-Cell Non-Hodgkin's Lymphoma); experiment: as above
# In short: as §1
# [27] = test system: TGBC1TKB (Biliary Tract Carcinoma); experiment: as above
# In short: as §1
# MPP-89 (Mesothelioma) [28] = experiment: as above
# In short: as §1
# [29] = test system: HH (T-Cell Non-Hodgkin's Lymphoma); experiment: as above
# In short: as §1
# [30] = test system: HuCCT1 (Biliary Tract Carcinoma); experiment: as above
# In short: as §1
# CAL-72 (Osteosarcoma) [31] = experiment: as above
# In short: as §1
# [32] = test system: BE-13 (T-Lymphoblastic Leukemia); experiment: as above
# In short: as §1
# [33] = test system: SNU-449 (Hepatocellular Carcinoma); experiment: as above
# In short: as §1
# [34] = test system: ESS-1 (Other Solid Carcinomas); experiment: as above
# In short: as §1
# [35] = test system: KYAE-1 (Esophageal Adenocarcinoma); experiment: as above
# In short: as §1
# LOXIMVI (Melanoma) [36] = experiment: as above
# In short: as §1
# GAMG (Glioblastoma) [37] = experiment: as above
# In short: as §1
# A673 (Ewing's Sarcoma) [38] = experiment: as above
# In short: as §1
# EW-11 (Ewing's Sarcoma) [39] = experiment: as above
# In short: as §1
# [40] = test system: YAPC (Pancreatic Carcinoma); experiment: as above
# In short: as §1
# KS-1 (Glioblastoma) [41] = experiment: as above
# In short: as §1
# [42] = test system: LS-123 (Colorectal Carcinoma); experiment: as above
# In short: as §1
# [43] = test system: NCI-H524 (Small Cell Lung Carcinoma); experiment: as above
# In short: as §1
# [44] = test system: SAS (Oral Cavity Carcinoma); experiment: as above
# In short: as §1
# [45] = test system: OVCAR-5 (Ovarian Carcinoma); experiment: as above
# In short: as §1
# [46] = test system: SNU-16 (Gastric Carcinoma); experiment: as above
# In short: as §1
# 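Wherever Bliss excess, mean over the matrix is given: after 72 h of two-drug dosing.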
smiles,measurement,setting,value
"C[C@@H](Oc1cc(-c2cnn(C3CCNCC3)c2)cnc1N)c1c(Cl)ccc(F)c1Cl [Crizotinib] + CC1=C(C(=CC=C1)Cl)NC(=O)C2=CN=C(S2)NC3=CC(=NC(=N3)C)N4CCN(CC4)CCO [Dasatinib] (first compound max 10 µM, 7x7, partner max 2 µM)",Bliss excess,[1],0.031
same,Bliss excess,[2],0.0429
same,Bliss excess,[3],0.0202
same,Bliss excess,[4],0.0435
same,Bliss excess,MPP-89 (Mesothelioma) [5],0.0389
same,Bliss excess,[6],-0.0138
same,Bliss excess,[7],-0.0274
same,Bliss excess,CAL-72 (Osteosarcoma) [8],0.0078
same,Bliss excess,[9],0.0321
same,Bliss excess,[10],0.0569
same,Bliss excess,[11],0.062
same,Bliss excess,[12],0
same,Bliss excess,LOXIMVI (Melanoma) [13],0.0145
same,Bliss excess,GAMG (Glioblastoma) [14],0.0164
same,Bliss excess,A673 (Ewing's Sarcoma) [15],-0.0281
same,Bliss excess,EW-11 (Ewing's Sarcoma) [16],-0.0571
same,Bliss excess,[17],0.0219
same,Bliss excess,KS-1 (Glioblastoma) [18],0.0499
same,Bliss excess,[19],0.0166
same,Bliss excess,[20],-0.0264
same,Bliss excess,[21],-0.0059
same,Bliss excess,[22],0.0338
same,Bliss excess,[23],0.0279
same,combination Emax,[24],0.944
same,combination Emax,[25],0.666
same,combination Emax,[26],0.994
same,combination Emax,[27],0.707
same,combination Emax,MPP-89 (Mesothelioma) [28],0.914
same,combination Emax,[29],0.203
same,combination Emax,[30],0.82
same,combination Emax,CAL-72 (Osteosarcoma) [31],0.79
same,combination Emax,[32],0.943
same,combination Emax,[33],0.831
same,combination Emax,[34],0.987
same,combination Emax,[35],0.169
same,combination Emax,LOXIMVI (Melanoma) [36],0.972
same,combination Emax,GAMG (Glioblastoma) [37],0.929
same,combination Emax,A673 (Ewing's Sarcoma) [38],0.681
same,combination Emax,EW-11 (Ewing's Sarcoma) [39],0.788
same,combination Emax,[40],0.694
same,combination Emax,KS-1 (Glioblastoma) [41],0.848
same,combination Emax,[42],0.967
same,combination Emax,[43],0.977
same,combination Emax,[44],0.779
same,combination Emax,[45],0.826
same,combination Emax,[46],0.909
